The source of these data is PMC10218498, “Exploring BenzylethoxyAryl Urea Scaffolds for Multitarget Immunomodulation Therapies” (International Journal of Molecular Sciences, 2023).

For test [1], the system named is HT-29 (colon adenocarcinoma). Kind of test: MTT cell proliferation assay, HT-29. The class given is cell-based, human. The settings on record: for IC50: Homo sapiens, read-out: IC50 HT-29; for SI (HT-29) (IC50HEK293/IC50HT-29): selectivity index. Here is the method: The 3-(4,5-dimethylthiazol-2-yl)-2,5-diphenyltetrazolium bromide (MTT; Sigma Chemical Co.) dye reduction assay in 96-well microplates was used. […] After that, the supernatant was discarded and replaced by 100 µL of DMSO to dissolve formazan crystals. The absorbance was then read at 550 nm by spectrophotometry. For all concentrations of compound, cell viability was expressed as the percentage of the ratio between the mean absorbance of treated cells and the mean absorbance of untreated cells. Three independent experiments were performed, and the IC50 values (i.e., concentration half inhibiting cell proliferation) were graphically determined using GraphPad Prism 4 software.
A general note: Tetrazolium dyes change colour on reduction, which living cells bring about.

A further test deals with PD-L1 (Homo sapiens, UniProt Q9NZQ7). The test is described as follows: PD-L1 relative quantification by flow cytometry in MCF-7. The class given is cell-based. Details: endogenous in cells; host or cells: MCF-7. As to conditions: MCF-7, 20 µM, 24 h; for % PD-L1 Memb. / % PD-L1 Total: control = 100. Here is the method: In view of the good results obtained for these selected compounds, we decided to extend the study to a third cancer cell line, MCF-7 (Human breast cancer adenocarcinoma). First, we determined the IC50 values of the derivatives and their SI indexes (see Table 4). Then, we determined the effect of the selected compounds on the biological targets, PD-L1 and VEGFR-2, by flow cytometry. […] As usually, the assay was performed at a concentration of 20 µM for 24 h.
PD-L1, sequence (Q9NZQ7 19-290): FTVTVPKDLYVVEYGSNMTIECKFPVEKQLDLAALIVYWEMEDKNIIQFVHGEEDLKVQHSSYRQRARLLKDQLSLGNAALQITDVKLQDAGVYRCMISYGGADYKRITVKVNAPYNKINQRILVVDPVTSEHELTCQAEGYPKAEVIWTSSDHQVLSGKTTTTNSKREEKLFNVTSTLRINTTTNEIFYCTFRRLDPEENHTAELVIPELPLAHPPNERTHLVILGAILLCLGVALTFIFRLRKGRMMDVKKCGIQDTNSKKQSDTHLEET
(§1) To study the effect of the compounds on every biological target in cancer cell lines, the compounds were used at 20 µM dose.
(§2) For the assay, 10^5 cells per well were incubated for 24 h with the corresponding dose of the tested compound in a total volume of 500 μL of their growth media.
On the one hand, to detect total PD-L1 and VEGFR-2, after the cell treatments, they were collected and fixed with 4% in PBS paraformaldehyde. After fixation, a treatment with 0.5% in PBS TritonTM X-100 was performed, and finally, cells were stained with FITC Mouse monoclonal Anti-Human VEGFR-2 (ab184903) and Alexa Fluor® 647 Rabbit monoclonal Anti-PD-L1 (ab215251).
(§3) On the other hand, to detect membrane PD-L1 and VEGFR-2, the process was the same, avoiding the treatment with 0.5% in PBS TritonTM X-100 step.

In test [2] the target is T1, VEGFR-2 (Homo sapiens, UniProt P35968). The test is described as follows: VEGFR-2 relative quantification by flow cytometry in HT-29. Details: Both membrane and total PD-L1 and VEGFR-2 were relatively determined using DMSO-treated cells as a negative control; endogenous in cells; host or cells: HT-29. The settings on record: 24 h; for Total VEGFR-2 (%): relative to DMSO control = 100; for inhibition at 20 µM: HT-29, HT-29, 20 µM, read-out: inhibition rate of VEGFR-2. It is filed as cell-based. The method, then:
(§4) For these assays, cells were incubated for 24 h in the presence of the corresponding compounds at 20 µM concentration.
as §1, §2
(§5) On the one hand, to detect total PD-L1 and VEGFR-2, after the cell treatments, they were collected and fixed with 4% in PBS paraformaldehyde.
as §3
(In general: Flow cytometry measures light scatter and fluorescence of single cells or particles in a stream.)

Test [3] has as its target T1, VEGFR-2. Kind of test: VEGFR-2 relative quantification by flow cytometry in A-549. It is filed as cell-based. The arrangement: Both membrane and total PD-L1 and VEGFR-2 were relatively determined using DMSO-treated cells as a negative control; endogenous in cells; host or cells: A-549. As to conditions: A-549, 20 µM, 24 h, relative to DMSO control = 100. The method, then: as §4, §1, §2, §5, §3

Test [4] addresses T1, VEGFR-2. The test is described as follows: VEGFR-2 relative quantification by flow cytometry in MCF-7. Details: Both membrane and total PD-L1 and VEGFR-2 were relatively determined using DMSO-treated cells as a negative control; endogenous in cells; host or cells: MCF-7. The class given is cell-based. As to conditions: MCF-7, 20 µM, 24 h, control = 100. The method, then: Then, we determined the effect of the selected compounds on the biological targets, PD-L1 and VEGFR-2, by flow cytometry. […] As usually, the assay was performed at a concentration of 20 µM for 24 h.
as §1, §2, §5, §3

Another test concerns ZAP70. The test is described as follows: Immunoblotting of OT-1 CTL signaling proteins: ZAP70. The class given is cell-based, mice. The settings on record: OT-1, 20 μM, 24 h. From the text: We next studied the effect of our compounds on the signaling cascade downstream of the TCR. […] However, both the expression and phosphorylation of LCK were increased in response to all compounds. The effects on ZAP70 and LAT were more complex, with opposing effects on total protein expression versus phosphorylation. Thus, all compounds modulated signaling downstream of the TCR in a manner that is likely to impact T-cell activation and activity.
CD8+ cells were obtained from the inguinal, axillary, brachial, and mesenteric lymph nodes previously collected from OT-1 mice. Lymph node cells were isolated by mashing through a […] cell strainer. Cells were resuspended in IMDM cell media at a concentration of 0.3 million cells/mL. N4 ovalbumin peptide was added at a concentration of 10 nM, and cells were incubated for 48 h at 5% CO2, 37 °C. On day 2 from recollection, cells were pelleted at 1300 rpm for 5 min and washed with PBS to remove N4 peptide. The cell pellet was resuspended in fresh IMDM media in a new flask in a 0.3 million cells/mL and supplemented with IL-2 at 20 ng/mL. After incubation for a further 48 h (day 4), cells were re-seeded in fresh IMDM media at a concentration of 0.3 million cells/mL supplemented with IL-2 at 20 ng/mL. Cells were cultured for a further 48 h prior to use on day 6 in functional assays.
To study the effect of the compounds in the signaling pathway of CTLs, the compound was incubated for 24 h at 20 μM. After this time, cells were collected and washed twice in PBS and lysed in radioimmunoprecipitation assay (RIPA) lysis buffer (50 mM tris-HCl at pH 7.4, 150 mM sodium chloride, 5 mM EGTA, 0.1% SDS, 1% NP-40, and 1% deoxycholate) supplemented with a protease and phosphatase inhibitor cocktail (mini complete ULTRA Protease tablet and phosSTOP tablet from Roche, Basel, Switzerland). Lysates were clarified by high-speed centrifugation (17,000 rpm for 15 min at 4 °C). Protein concentration was measured using a Micro BCA Protein Assay (Thermo Scientific, Waltham, MA, USA), and 10 μg to 30 μg of total protein were supplemented with 2X SDS sample buffer [tris (pH 6.8), 20% glycerol, 5% SDS, b-mercaptoethanol, and bromophenol blue) and boiled at 95 °C for 5 min. […] Bound Ab was detected by incubation with anti-rabbit and anti-mouse horseradish peroxidase secondary Ab (Cell Signaling Technology) and visualized using the Bio-Rad ChemiDoc MP Imaging System.
(In western blotting, separated proteins are transferred to a membrane and probed.)

For orientation: IC50 means the concentration at which inhibition is half-maximal. For orientation: inhibition means the change of the read-out against control, counted positive when it falls.

The structures appear in SMILES notation. Like-named read-outs stand apart in the source and are kept apart here.

T1 sequence (P35968 20-1356): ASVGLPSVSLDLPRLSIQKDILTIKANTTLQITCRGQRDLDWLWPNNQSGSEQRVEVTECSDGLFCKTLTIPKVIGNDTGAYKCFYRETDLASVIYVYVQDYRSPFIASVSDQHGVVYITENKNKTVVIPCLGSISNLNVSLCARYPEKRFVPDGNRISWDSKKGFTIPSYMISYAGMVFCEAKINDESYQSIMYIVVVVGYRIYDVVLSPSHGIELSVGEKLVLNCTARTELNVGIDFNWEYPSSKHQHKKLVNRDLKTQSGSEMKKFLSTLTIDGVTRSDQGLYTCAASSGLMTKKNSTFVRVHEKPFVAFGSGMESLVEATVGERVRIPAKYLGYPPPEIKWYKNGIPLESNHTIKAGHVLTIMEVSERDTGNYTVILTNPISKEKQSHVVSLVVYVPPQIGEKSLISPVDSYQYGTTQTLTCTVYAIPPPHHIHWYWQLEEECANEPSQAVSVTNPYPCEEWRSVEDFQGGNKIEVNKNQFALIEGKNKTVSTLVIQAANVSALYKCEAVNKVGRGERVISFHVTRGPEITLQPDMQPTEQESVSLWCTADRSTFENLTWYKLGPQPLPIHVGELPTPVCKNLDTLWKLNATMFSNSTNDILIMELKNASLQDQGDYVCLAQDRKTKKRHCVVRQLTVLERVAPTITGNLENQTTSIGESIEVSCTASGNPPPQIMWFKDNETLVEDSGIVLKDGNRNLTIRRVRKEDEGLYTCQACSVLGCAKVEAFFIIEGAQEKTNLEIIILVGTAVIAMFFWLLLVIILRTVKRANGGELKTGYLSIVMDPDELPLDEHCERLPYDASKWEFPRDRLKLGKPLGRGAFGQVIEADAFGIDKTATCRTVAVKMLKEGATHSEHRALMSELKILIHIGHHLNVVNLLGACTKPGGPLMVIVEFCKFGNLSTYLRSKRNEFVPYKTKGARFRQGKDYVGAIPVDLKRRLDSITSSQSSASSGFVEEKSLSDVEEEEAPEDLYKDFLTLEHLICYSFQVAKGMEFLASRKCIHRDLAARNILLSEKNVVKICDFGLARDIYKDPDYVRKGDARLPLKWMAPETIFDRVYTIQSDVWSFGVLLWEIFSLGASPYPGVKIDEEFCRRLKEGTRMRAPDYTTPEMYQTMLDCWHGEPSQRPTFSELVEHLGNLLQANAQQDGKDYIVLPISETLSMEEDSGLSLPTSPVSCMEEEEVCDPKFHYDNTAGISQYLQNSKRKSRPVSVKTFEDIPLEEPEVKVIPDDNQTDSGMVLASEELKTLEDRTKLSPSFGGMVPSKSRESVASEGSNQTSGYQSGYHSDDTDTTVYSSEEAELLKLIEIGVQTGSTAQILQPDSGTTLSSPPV

`Cc1c(COc2ccc(CN3CCCCC3C(=O)O)cc2Br)cccc1-c1ccccc1` (centres unmarked) [BMS-8, reference compound]: the IC50 in test [1] (HT-29, MTT, 48 h of treatment) is 19 ± 2 µM. In test [1], the “SI (HT-29) (IC50HEK293/IC50HT-29)” value is 3. Besides, on PD-L1, the “% PD-L1 Memb.” value was 88 ± 11% and the “% PD-L1 Total” value was found to be 197%. The “Total VEGFR-2 (%)” value at VEGFR-2 [2] (HT-29, 20 µM) turned out to be 86 ± 21%. The “Total VEGFR-2 (%)” value at VEGFR-2 [3] is given as 122 ± 13%. Also, at VEGFR-2 [4], the “% VEGFR-2 Memb.” value is reported as 107 ± 4% and the “% VEGFR-2 Total” value is 93%.
On to `COc1ccc(COc2cccc(NC(=O)Nc3ccc(F)cc3)c2)cc1` [Compound 2], for which the IC50 in test [1] (HT-29, MTT, 48 h of treatment) came to 5.5 ± 1.2 µM. Further, the “SI (HT-29) (IC50HEK293/IC50HT-29)” value in test [1] is reported as over 18. Further, in the test on ZAP70, the “ZAP-70 protein expression (Western blot quantification)” value turned out to be 34 and the “pZAP-70 protein expression (Western blot quantification)” value (from here on “pZAP-70 protein expression”) is recorded as 88. Also, at PD-L1, the “% PD-L1 Memb.” value amounted to 81 ± 10% and the “% PD-L1 Total” value was 62 ± 15%. Moreover, on VEGFR-2 [2] (HT-29, 20 µM), the “Total VEGFR-2 (%)” value is reported as 62 ± 15%. Also, the inhibition at 20 µM at VEGFR-2 [2] was about 50%. Besides, the “Total VEGFR-2 (%)” value on VEGFR-2 [3] is recorded as 97 ± 12%. In addition, at VEGFR-2 [4], the “% VEGFR-2 Memb.” value is 91 ± 12% and the “% VEGFR-2 Total” value is listed as 72 ± 10%.
Take `COc1ccc(COc2cccc(NC(=O)Nc3ccc(Br)cc3)c2)cc1` [Compound 8]: the IC50 in test [1] (HT-29, MTT, 48 h of treatment) came to 11 ± 1 µM. Besides, the “SI (HT-29) (IC50HEK293/IC50HT-29)” value in test [1] was over 9. Also, in the test on ZAP70, the “ZAP-70 protein expression (Western blot quantification)” value stood at 37 and the “pZAP-70 protein expression” value was determined as 74. Moreover, at PD-L1, the “% PD-L1 Memb.” value was determined as 94 ± 12% and the “% PD-L1 Total” value is on record as 87 ± 23%. Further, the “Total VEGFR-2 (%)” value on VEGFR-2 [2] (HT-29, 20 µM) is given as 46 ± 18%. Also, on VEGFR-2 [2], the inhibition at 20 µM was about 60%. Also, the “Total VEGFR-2 (%)” value at VEGFR-2 [3] is 141 ± 13%. Further, at VEGFR-2 [4], the “% VEGFR-2 Memb.” value is given as 82 ± 6% and the “% VEGFR-2 Total” value is 88 ± 11%.
As for `COc1ccc(COc2cccc(NC(=O)Nc3ccc(OC)cc3)c2)cc1` [Compound 11], in test [1] (HT-29, MTT, 48 h of treatment), the IC50 came to 2 ± 1.2 µM. For the same compound, the “SI (HT-29) (IC50HEK293/IC50HT-29)” value in test [1] is over 50. In the test with ZAP70, the “ZAP-70 protein expression (Western blot quantification)” value stood at 38 and the “pZAP-70 protein expression” value is given as 77. The inhibition at 20 µM on PD-L1 (MCF7, read-out: inhibition rate for total PD-L1) is about 40%. At PD-L1, the “% PD-L1 Memb.” value was found to be 100 ± 7% and the “% PD-L1 Total” value was 57 ± 15%. Moreover, on VEGFR-2 [2] (HT-29, 20 µM), the “inhibition rate of VEGFR-2” value is “no inhibitory effect” and the “Total VEGFR-2 (%)” value is on record as 168 ± 12%. Besides, at VEGFR-2 [3], the “Total VEGFR-2 (%)” value is 143 ±10%. In addition, on VEGFR-2 [4], the “% VEGFR-2 Memb.” value was 81 ± 11% and the “% VEGFR-2 Total” value was 83 ± 21%.
For `COc1ccc(COc2cccc(NC(=O)Oc3ccccc3)c2)cc1` [Compound 14], the IC50 in test [1] (HT-29, 48 h) was 6.8 ± 0.5 µM. The “SI (HT-29) (IC50HEK293/IC50HT-29)” value in test [1] was over 15. In addition, in the test on ZAP70, the “ZAP-70 protein expression (Western blot quantification)” value came out at 54 and the “pZAP-70 protein expression” value is 108. Also, on PD-L1, the “% PD-L1 Memb.” value was determined as 81 ± 8% and the “% PD-L1 Total” value is on record as 85 ± 15%. At VEGFR-2 [2] (HT-29, 20 µM), the “Total VEGFR-2 (%)” value stood at 43 ± 12%. Further, the inhibition at 20 µM at VEGFR-2 [2] was about 60%. Also, the “Total VEGFR-2 (%)” value on VEGFR-2 [3] is given as 107 ± 18%. On VEGFR-2 [4], the “% VEGFR-2 Memb.” value is listed as 89 ± 11% and the “% VEGFR-2 Total” value was found to be 110 ± 12%.
